Measurements from patent US10183937B2, “1,3-thiazol-2-yl substituted benzamides” (BAYER AKTIENGESELLSCHAFT, priority 2014, dated 2019).

Legend:
rat hepatocytes = test: In vitro metabolic stability in rat hepatocytes; format: in vitro ADME, Han Wistar rats; conditions: 1 μM, maximal oral bioavailability calculated from half-life
Description: Determination of In Vitro Metabolic Stability in Rat Hepatocytes (Including Calculation of Hepatic In Vivo Blood Clearance (CL))
Hepatocytes from Han Wistar rats were isolated via a 2-step perfusion method. After perfusion, the liver was carefully removed from the rat: the liver capsule was opened and the hepatocytes were gently shaken out into a Petri dish with ice-cold Williams' medium E (WME). The resulting cell suspension was filtered through sterile gaze in 50 mL falcon tubes and centrifuged at 50×g for 3 min at room temperature. The cell pellet was resuspended in 30 mL WME and centrifuged through a Percoll® gradient for 2 times at 100×g. The hepatocytes were washed again with WME and resuspended in medium containing 5% FCS. Cell viability was determined by trypan blue exclusion. […] The test compound was added to a final concentration of 1 μM. […] Samples were frozen at −20° C. overnight, subsequently centrifuged for 15 minutes at 3000 rpm and the supernatant was analyzed with an Agilent 1200 HPLC-system with LCMS/MS detection.
The half-life of a test compound was determined from the concentration-time plot. From the half-life (kel: slope of concentration-time plot; half-life=ln 2/kel) the intrinsic clearances were calculated. Together with the additional parameters liver blood flow, amount of liver cells in vivo and in vitro.
(§1) Metabolic instability is often the main clearance mechanism of xenobiotica leading to a high CL and low bioavailability which may eventually result in a short half-life and a low exposure after oral administration. Thus, reducing the susceptibility of metabolic degradation usually leads to a more favourable pharmacokinetic profile. When using liver microsomes as incubation matrix main phase I metabolic reactions, typically oxidoreductive reactions by cytochrome P450 enzymes and flavin mono-oxygenases (FMO) and hydrolytic reactions by esterases/amidases/epoxidhydrolases, are described. When the incubation of the test compound is performed in a hepatocyte matrix all potential hepatic metabolic processes (phase I and phase II) are covered.

[1] = In vitro metabolic stability in liver microsomes (calculation of CL and Fmax); format: in vitro ADME, human; conditions: 1 μM, maximal oral bioavailability calculated from half-life
Description: In Vitro Metabolic Stability Assays Determination of In Vitro Metabolic Stability in Microsomes (Including Calculation of Hepatic In Vivo Blood Clearance (CL) and of Maximal Oral Bioavailability (Fmax))
The metabolic assay was started shortly afterwards by adding the test compound to the incubation at a final volume of 1 mL. Organic solvent in the incubations was limited to ≤0.01% dimethylsulfoxide (DMSO) and ≤1% acetonitrile. […] Samples were frozen at −20° C. overnight, subsequently centrifuged for 15 minutes at 3000 rpm and the supernatant was analyzed with an Agilent 1200 HPLC-system with LCMS/MS detection.
The half-life of a test compound was determined from the concentration-time plot. From the half-life (kel: slope of concentration-time plot; half-life=ln 2/kel) the intrinsic clearances were calculated. Together with the additional parameters liver blood flow, specific liver weight and microsomal protein content the hepatic in vivo blood clearance (CL) and the maximal oral bioavailability (Fmax) were calculated for the different species.
as §1

[2] = clinical PhII trials; attributed to blockade of P2X2/3 channels; cited from earlier work
vaginal hyperalgesia = test: Rat dyspareunia model (visceromotor response to vaginal distension); format: in vivo, Sprague Dawley rats; conditions: 15 mg/kg oral b.i.d. during 2 weeks
Description: The visceromotor response (VMR) to vaginal distension was used in conscious animals as an objective measure of vaginal sensitivity. […] To measure VMR response, 2 Teflon-coated wire electrodes were sutured in the external oblique abdominal muscle, and tunneled subcutaneously to be exteriorized at the base of the neck for future access. On the day of VMR assessment, a lubricated small balloon (1 cm length) was inserted into the mid-vaginal canal. The balloon catheter was secured to the base of the tail and connected to a volume controller/timing device (infusion pump) for balloon distension. The vaginal balloon was inflated to ramp intensities of distension (0.05 ml increments every 20 sec.) to a maximal volume of 0.8 ml. The electrodes were connected to an amplifier (Animal Bio Amp, ADInstruments), and the abdominal electromyographic signal was recorded using a data acquisition system (PowerLab, ADInstruments) for off-line analysis using LabChart version 7. The number of abdominal muscle contractions was counted manually for each 0.1 ml distension step, as an index of vaginal pain. […] All data were expressed as mean±standard deviation (s.d.), for the number (n) of measured rats per group. […] Planned comparison of means (matched-volume versus vehicle) was performed using a Bonferroni post hoc test, provided that a main effect was detected. […]

[3] = Human liver cytosol stability assay; format: in vitro ADME; conditions: 4 h incubation
Description: Human Liver Cytosol Stability Assay
Method description: Human liver cytosol (pooled, >30 male and female donors) was incubated with individual test compounds in order to compare the extent of depletion of test compound and formation of the respective oxidised metabolite.
An incubation volume of 1000 μL was used. The test compound was added from a stock solution in acetonitrile at 1 or 10 μM concentration in the incubation. Incubations were performed at 37° C. Reactions were stopped at 0 h and 4 h after incubation by addition of 100 μL acetonitrile to 250 μL of incubation mixture. Precipitated proteins were removed by centrifugation at approximately 3000 rpm. The supernatants were stored at approximately −20° C. until they were analysed. […]
Data analysis: The depletion of the test compound and formation of the corresponding metabolites were determined by decrease or increase of the corresponding peak area in the chromatogram after UV detection at approximately 300 nm 4 h after incubation compared to that at 0 h after incubation. […]

SMILES | Rat hepatocyte Fmax (rat hepatocytes) [%] | Human liver microsome Fmax [1] [%] | taste side effect in treated subjects [2] | Vaginal hyperalgesia compared to vehicle-treated animals (vaginal hyperalgesia) | Test compound turnover after 4 h [3] [%]
Cc1cnc(-c2cc(OC(C)C(C)O)cc(C(=O)N[C@H](C)c3cnc(C(F)(F)F)nc3)c2)s1 (single isomer, unassigned) [Example 163] | 53 | 100 | – | – | –
Cc1cnc(-c2cc(OC(C)C(C)O)cc(C(=O)N[C@H](C)c3ccc(C(F)(F)F)nn3)c2)s1 (single isomer, unassigned) [Example 183] | 43 | 74 | – | – | –
Cc1cnc(-c2cc(OC(C)C(C)O)cc(C(=O)N[C@H](C)c3cnc(C(F)(F)F)nc3)c2)s1 (single isomer, unassigned) [Example 339] | 52 | 94 | – | – | –
Cc1cnc(-c2cc(OC(C)C(C)O)cc(C(=O)N[C@H](C)c3cnc(C(F)(F)F)nc3)c2)s1 (single isomer, unassigned) [Example 340] | 64 | 90 | – | – | –
COc1cc(C(C)C)c(Oc2cnc(N)nc2N)cc1S(N)(=O)=O [AF-219] | – | – | taste disturbances | – | –
Cc1cnc(-c2cc(O[C@@H]3CCOC3)cc(C(=O)N[C@H](C)c3cnc(C(F)(F)F)nc3)c2)s1 [Example 11, 3-(5-Methyl-1,3-thiazol-2-yl)-5-[(3R)-tetrahydrofuran-3-yloxy]-N-{(1R)-1-[2-(trifluoromethyl)pyrimidin-5-yl]ethyl}benzamide] | 52 | 57 | – | decreased vaginal hyperalgesia compared to vehicle-treated animals | 0.9
Cc1cnc(-c2cc(O[C@H]3CCOC3)cc(C(=O)N[C@H](C)c3cnc(C(F)(F)F)nc3)c2)s1 [Example 26, 3-(5-Methyl-1,3-thiazol-2-yl)-5-[(3S)-tetrahydrofuran-3-yloxy]-N-{(1R)-1-[2-(trifluoromethyl)pyrimidin-5-yl]ethyl}benzamide] | 56 | 67 | – | – | 0.9
CCc1cnc(-c2cc(OC[C@H]3CN(C)CCO3)cc(C(=O)N[C@H](C)c3ccc(C(F)(F)F)nn3)c2)s1 [Example 419, 3-(5-ethyl-1,3-thiazol-2-yl)-5-{[(2R)-4-methyl-morpholin-2-yl]methoxy}-N-{(1R)-1-[6-(trifluoromethyl)pyridazin-3-yl]ethyl} benzamide] | 51 | 74 | – | – | –
